Results on 22 compounds are retold here after patent US10294207B2, “Pyrazole derivatives as TNIK, IKKϵ and TBK1 inhibitor and pharmaceutical composition comprising same” (GREEN CROSS CORPORATION, priority 2015, dated 2019).

The structures appear in SMILES notation.

Test [1] addresses T1, IKKε (Homo sapiens, UniProt Q14164).
T1 construct: purchased Invitrogen PR8031B
T1 sequence (Q14164 1-716): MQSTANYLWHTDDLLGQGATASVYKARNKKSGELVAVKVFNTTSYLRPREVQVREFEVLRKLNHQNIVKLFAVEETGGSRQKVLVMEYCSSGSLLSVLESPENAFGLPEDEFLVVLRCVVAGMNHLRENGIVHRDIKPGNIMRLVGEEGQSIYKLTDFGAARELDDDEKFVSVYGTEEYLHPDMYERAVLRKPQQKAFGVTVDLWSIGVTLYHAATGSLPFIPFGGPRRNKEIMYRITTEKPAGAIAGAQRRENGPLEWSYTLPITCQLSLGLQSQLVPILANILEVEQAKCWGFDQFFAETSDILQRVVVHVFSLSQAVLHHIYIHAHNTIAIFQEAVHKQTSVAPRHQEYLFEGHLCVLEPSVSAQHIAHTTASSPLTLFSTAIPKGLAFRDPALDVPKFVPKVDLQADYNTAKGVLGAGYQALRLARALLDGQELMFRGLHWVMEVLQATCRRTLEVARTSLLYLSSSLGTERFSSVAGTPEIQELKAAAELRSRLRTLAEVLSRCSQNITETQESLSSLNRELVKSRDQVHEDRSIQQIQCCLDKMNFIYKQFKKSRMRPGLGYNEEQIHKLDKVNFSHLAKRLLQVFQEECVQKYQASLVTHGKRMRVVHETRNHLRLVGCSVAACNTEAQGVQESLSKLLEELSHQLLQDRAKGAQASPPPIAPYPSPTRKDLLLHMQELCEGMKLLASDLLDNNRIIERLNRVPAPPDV
The test can be described thus: IKKε inhibition, ADP-Glo Kinase Assay. To be noted: luminometer. The format is biochemical. The essentials:
(§1)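 Each recombinant kinase enzyme system was run per the manufacturer's protocol in 40 mM Tris pH 7.5, 20 mM MgCl2 and 0.1 mg/mL BSA. Kinase activity was detected as ADP formation by ADP-Glo luminescence.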

For test [2], the target named is T2, TBK1 (Homo sapiens, UniProt Q9UHD2).
T2 construct: purchased Promega V3991
T2 sequence (Q9UHD2 1-729): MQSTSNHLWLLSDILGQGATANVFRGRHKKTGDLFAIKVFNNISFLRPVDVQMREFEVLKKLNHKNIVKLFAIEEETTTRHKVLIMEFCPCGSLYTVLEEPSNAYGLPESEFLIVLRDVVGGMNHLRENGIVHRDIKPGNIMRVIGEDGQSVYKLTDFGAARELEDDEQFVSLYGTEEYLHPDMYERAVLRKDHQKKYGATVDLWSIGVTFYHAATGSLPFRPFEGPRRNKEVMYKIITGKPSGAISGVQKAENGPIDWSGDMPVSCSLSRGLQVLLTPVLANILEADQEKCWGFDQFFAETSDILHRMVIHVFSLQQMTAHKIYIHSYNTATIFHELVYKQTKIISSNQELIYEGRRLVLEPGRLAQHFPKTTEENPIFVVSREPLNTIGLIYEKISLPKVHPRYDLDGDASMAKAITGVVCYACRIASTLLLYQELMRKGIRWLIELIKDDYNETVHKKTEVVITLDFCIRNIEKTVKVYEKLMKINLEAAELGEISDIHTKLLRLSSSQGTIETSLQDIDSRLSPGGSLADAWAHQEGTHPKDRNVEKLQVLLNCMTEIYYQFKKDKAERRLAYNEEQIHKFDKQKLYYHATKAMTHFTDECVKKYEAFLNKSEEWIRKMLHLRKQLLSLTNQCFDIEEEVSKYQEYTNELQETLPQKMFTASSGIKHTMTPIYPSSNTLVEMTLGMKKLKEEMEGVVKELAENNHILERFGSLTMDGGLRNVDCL
The experiment in a line: TBK1 inhibition, ADP-Glo Kinase Assay. The format is biochemical. To be noted: luminometer. The essentials:
as §1
(ADP-Glo first removes unused ATP, then detects ADP through luciferase.)

A word on the IC50: it is the point on the concentration scale where inhibition reaches its midpoint. Read a high IC50 as lower potency. On to `C[C@@H](NC(=O)c1ccc2[nH]nc(NC(=O)c3ccc(N4CCN(C)CC4)cc3)c2c1)c1ccccc1` [Example 175, (R)-3-(4-(4-Methylpiperazin-1-yl)benzamido)-N-(1-phenylethyl)-1H-indazole-5-carboxamide], for which the IC50 in test [1] turned out to be 0.0076 µM; in test [2] it was 0.0024 µM.
Regarding `C[C@H](NC(=O)c1ccc2[nH]nc(NC(=O)c3ccc(N4CCN(C)CC4)cc3)c2c1)c1ccccc1` [Example 176, (S)-3-(4-(4-Methylpiperazin-1-yl)benzamido)-N-(1-phenylethyl)-1H-indazole-5-carboxamide], the values for the IC50 in test [1] and in test [2] were 0.34 µM and 0.058 µM, respectively.
The corresponding values for `O=C(NCc1ccccc1)c1ccc2[nH]nc(NC(=O)c3ccc(N4CCOCC4)cc3)c2c1` [Example 177, N-Benzyl-3-(4-morpholinobenzamido)-1H-indazole-5-carboxamide] are 0.033 µM and 0.011 µM.
For `CN1CCN(c2ccc(C(=O)Nc3n[nH]c4ccc(C(=O)NCc5ccno5)cc34)cc2)CC1` [Example 178, N-(Isoxazol-5-ylmethyl)-3-(4-(4-methylpiperazin-1-yl)benzamido)-1H-indazole-5-carboxamide], in that order: 0.16 µM and 0.037 µM.
For `CC(NC(=O)c1ccc2[nH]nc(NC(=O)c3ccc(N4CCN(C)CC4)cc3)c2c1)c1ccccc1` (centres unmarked) [Example 179, 3-(4-(4-Methylpiperazin-1-yl)benzamido)-N-(1-phenylethyl)-1H-indazole-5-carboxamide], in that order: 0.019 µM and 0.0012 µM.
With `CC(NC(=O)c1ccc2[nH]nc(NC(=O)c3ccc(N4CCOCC4)cc3)c2c1)c1ccccc1` (centres unmarked) [Example 180, 3-(4-Morpholinobenzamido)-N-(1-phenylethyl)-1H-indazole-5-carboxamide], the IC50 is 0.12 µM in test [1] and 0.0023 µM in test [2].
For `CC(NC(=O)c1ccc2[nH]nc(NC(=O)c3ccc(N4CCNCC4)cc3)c2c1)c1ccccc1` (centres unmarked) [Example 181, N-(1-Phenylethyl)-3-(4-(piperazin-1-yl)benzamido)-1H-indazole-5-carboxamide 2,2,2-trifluoroacetate], in that order: 0.022 µM and 0.0039 µM.
For `CC1CN(c2ccc(C(=O)Nc3n[nH]c4ccc(C(=O)NC(C)c5ccccc5)cc34)cc2)CC(C)N1` (centres unmarked) [Example 182, 3-(4-(3,5-Dimethylpiperazin-1-yl)benzamido)-N-(1-phenylethyl)-1H-indazole-5-carboxamide], the IC50 in test [1] turned out to be 0.0081 µM; in test [2], 0.003 µM.
For `CC1CN(c2ccc(C(=O)Nc3n[nH]c4ccc(C(=O)NC(C)c5ccccc5)cc34)cc2)CC(C)O1` (centres unmarked) [Example 183, 3-(4-(2,6-Dimethylmorpholino)benzamido)-N-(1-phenylethyl)-1H-indazole-5-carboxamide], in that order: 0.018 µM and 0.0043 µM.
The corresponding values for `CC(NC(=O)c1ccc2[nH]nc(NC(=O)c3ccc(N4CCN[C@@H](C)C4)cc3)c2c1)c1ccccc1` (some centres unmarked) [Example 184, 3-(4-((8)-3-Methylpiperazin-1-yl)benzamido)-N-(1-phenylethyl)-1H-indazole-5-carboxamide 2,2,2-trifluoroacetate] are 0.015 µM and 0.0037 µM.
For `CC(NC(=O)c1ccc2[nH]nc(NC(=O)c3ccc(N4CCN[C@H](C)C4)cc3)c2c1)c1ccccc1` (stereo partly drawn) [Example 185, 3-(4-((R)-3-Methylpiperazin-1-yl)benzamido)-N-(1-phenylethyl)-1H-indazole-5-carboxamide 2,2,2-trifluoroacetate], in that order: 0.019 µM and 0.0033 µM.
For `CC(NC(=O)c1ccc2[nH]nc(NC(=O)c3ccc(N4C[C@@H](C)N[C@@H](C)C4)cc3)c2c1)c1ccccc1` (stereo partly drawn) [Example 186, 3-(4-((3R,5S)-3,5-Dimethylpiperazin-1-yl)benzamido)-N-(1-phenylethyl)-1H-indazole-5-carboxamide], the IC50 in test [1] turned out to be 0.012 µM; in test [2], 0.0027 µM.
With `CCC(NC(=O)c1ccc2[nH]nc(NC(=O)c3ccc(N4CCN(C)CC4)cc3)c2c1)c1ccccc1` (centres unmarked) [Example 187, 3-(4-(4-Methylpiperazin-1-yl)benzamido)-N-(1-phenylpropyl)-1H-indazole-5-carboxamide], the results for the IC50 in test [1] and in test [2] were 0.018 µM and 0.0035 µM, respectively.
The corresponding values for `CCC(NC(=O)c1ccc2[nH]nc(NC(=O)c3ccc(N4CCOCC4)cc3)c2c1)c1ccccc1` (centres unmarked) [Example 188, 3-(4-Morpholinobenzamido)-N-(1-phenylpropyl)-1H-indazole-5-carboxamide] are 0.017 µM and 0.0032 µM.
The corresponding values for `CN1CCN(c2ccc(C(=O)Nc3n[nH]c4ccc(C(=O)NCc5ccc(F)cc5)cc34)cc2)CC1` [Example 189, N-(4-Fluorobenzyl)-3-(4-(4-methylpiperazin-1-yl)benzamido)-1H-indazole-5-carboxamide] are 0.13 µM and 0.019 µM.
The corresponding values for `CC[C@H](NC(=O)c1ccc2[nH]nc(NC(=O)c3ccc(N4CCN(C)CC4)cc3)c2c1)c1ccccc1` [Example 190, (S)-3-(4-(4-Methylpiperazin-1-yl)benzamido)-N-(1-phenylpropyl)-1H-indazole-5-carboxamide] are 1.23 µM and 0.34 µM.
As for `CC[C@@H](NC(=O)c1ccc2[nH]nc(NC(=O)c3ccc(N4CCN(C)CC4)cc3)c2c1)c1ccccc1` [Example 191, (R)-3-(4-(4-Methylpiperazin-1-yl)benzamido)-N-(1-phenylpropyl)-1H-indazole-5-carboxamide], the half-inhibitory concentration (IC50) in test [1] turned out to be 0.014 µM; in test [2], 0.0013 µM.
The corresponding values for `CCC[C@H](NC(=O)c1ccc2[nH]nc(NC(=O)c3ccc(N4CCN(C)CC4)cc3)c2c1)c1ccccc1` [Example 193, (S)-3-(4-(4-Methylpiperazin-1-yl)benzamido)-N-(1-phenylbutyl)-1H-indazole-5-carboxamide] are 4.47 µM and 0.8 µM.
Consider `CCC[C@@H](NC(=O)c1ccc2[nH]nc(NC(=O)c3ccc(N4CCN(C)CC4)cc3)c2c1)c1ccccc1` [Example 194, (R)-3-(4-(4-Methylpiperazin-1-yl)benzamido)-N-(1-phenylbutyl)-1H-indazole-5-carboxamide], for which the IC50 came to 0.038 µM in test [1] and 0.0075 µM in test [2].
With `CN1CCN(c2ccc(C(=O)Nc3n[nH]c4ccc(C(=O)NCc5cccc(F)c5)cc34)cc2)CC1` [Example 195, N-(3-Fluorobenzyl)-3-(4-(4-methylpiperazin-1-yl)benzamido)-1H-indazole-5-carboxamide], the IC50 in test [1] was determined as 0.05 µM; in test [2] it was 0.0072 µM.
For `CN1CCN(c2ccc(C(=O)Nc3n[nH]c4ccc(C(=O)NCc5ccccc5F)cc34)cc2)CC1` [Example 196, N-(2-Fluorobenzyl)-3-(4-(4-methylpiperazin-1-yl)benzamido)-1H-indazole-5-carboxamide], in that order: 0.032 µM and 0.007 µM.
The corresponding values for `CN1CCN(c2ccc(C(=O)Nc3n[nH]c4ccc(C(=O)NC(c5ccccc5)C5CC5)cc34)cc2)CC1` (centres unmarked) [Example 197, N-(Cyclopropyl(phenyl)methyl)-3-(4-(4-methylpiperazin-1-yl)benzamido)-1H-indazole-5-carboxamide] are 0.042 µM and 0.027 µM.
